These results are taken from patent publication EP3329923A1, “THE POTENTIAL OF CRBN-INDEPENDENT IMID RESENSITIZATION BY EPIGENETIC THERAPY” (University of Copenhagen, priority 2016, dated 2018).

As a reminder, the IC50 is the concentration at which inhibition is half-maximal.

The subject of assay [1] is JJN3. As to the kind of experiment: Cell proliferation, XTT dye absorbance (IC50 of IMiDs). As to conditions: Homo sapiens, JJN-3, 72 h, XTT absorbance 3 days after treatment with IMiDs. It is filed as cell-based. From the text: (§1) A total of seven commercially available human myeloma cell lines (JJN3, OPM2, RPMI-8226, U266, NCI-H929, LP-1, KMS12-BM) were purchased from DSMZ (Leibniz Institute DSMZ-German Collection of Microorganisms and Cell Cultures, Braunschweig, Germany).
(§2) First, the present inventors tested the sensitivity of all HMCL to both lenalidomide and pomalidomide by generating dose-response curves and calculating the IC50 of both drugs for each cell line (given in tables below).
In general terms: Formazan colour is commonly taken as a measure of viable cells.

Assay [2] has as its system KMS12-BM. The assay is described as above. It is filed as cell-based. As to conditions: Homo sapiens, KMS-12-BM, 72 h, XTT absorbance 3 days after treatment with IMiDs.
Source text: as §1, §2

Assay [3] relates to NCI-H929. The assay is described as above. As to conditions: Homo sapiens, 72 h, XTT absorbance 3 days after treatment with IMiDs. It is filed as cell-based.
Source text: as §1, §2

For assay [4], the system named is OPM2. The description is as above. As to conditions: Homo sapiens, OPM-2, 72 h, XTT absorbance 3 days after treatment with IMiDs. It counts as cell-based.
Source text: as §1, §2

Assay [5] has as its system RPMI-8226. The assay is described as above. It is filed as cell-based. As to conditions: Homo sapiens, RPMI-8226, 72 h, XTT absorbance 3 days after treatment with IMiDs.
Source text: as §1, §2

The test system of assay [6] is U266. Described as above. It is filed as cell-based. As to conditions: Homo sapiens, U-266, 72 h, XTT absorbance 3 days after treatment with IMiDs.
Source text: as §1, §2

In assay [7] the test system is all IMiD-resistant cell lines. As to the kind of experiment: Resensitization to IMiDs after 48 hours epidrug pretreatment, apoptosis and cell cycle assays. It counts as cell-based, human. As to conditions: epidrug pretreatment for 48 hours, then no treatment vs. 10 µM lenalidomide or pomalidomide; panobinostat as monotherapy or combined with 5-Azacytidine or EPZ-6438.

For assay [8], the system named is CRBN. As to the kind of experiment: CRBN expression by qPCR after epidrug treatment. As to conditions: OPM2-LR and OPM2-PR, monotherapy and combination (Figure 13A). On the technique in general: In qPCR the cycle at which signal appears reflects the starting amount.
Assay [9] has as its system EZH2. As to conditions: EZH2 over EZH1; cited from earlier work.
The subject of assay [10] is OPM2-PR. As to the kind of experiment: Apoptosis assay (Annexin V and PI), resensitization to IMiDs. As to conditions: epidrug treatment 48 hours, then 10 µM lenalidomide or 10 µM Pomalidomide for 3 days (Figure 11B).
Procedure: Cell proliferation (and IC50 for each cell line) was assessed by measuring 2,3-Bis-(2-Methoxy-4-Nitro-5-Sulfophenyl)-2H-Tetrazolium-5-Carboxanilide (XTT) dye absorbance 3 days after treatment with IMiDs. Cell apoptosis was evaluated using Annexin V and PI, with the analysis performed on a FACS-Calibur (BD Bioscience).
Assay [11] deals with JJN3. As to the kind of experiment: Apoptosis assay, epigenetic sensitization in intrinsic IMiD resistance. As to conditions: JJN3, baseline IMiD resistance (Figure 13C).
Procedure: (§3) Cell apoptosis was evaluated using Annexin V and PI, with the analysis performed on a FACS-Calibur (BD Bioscience).
(§4) The present inventors then went on to examine whether the combination of epidrugs was effective in intrinsically IMiD-resistant cell lines.
The subject of assay [12] is KMS12-BM. The description is as above. As to conditions: baseline IMiD resistance (Figure 13C).
Procedure: as §3, §4

For `Nc1cccc2c1CN(C1CCC(=O)NC1=O)C2=O` (centres unmarked) [Lenalidomide], the half-maximal inhibitory concentration (IC50) in assay [1] was 136 µM; in [2], 20.8 µM; in assay [3], 0.563 µM; in assay [4], 5.01 µM; in assay [5], 118 µM; in assay [6] it was 68.1 µM.

For `Nc1ncn([C@@H]2O[C@H](CO)[C@@H](O)[C@H]2O)c(=O)n1` [5-Azacytidine, 4-amino-1-beta-D-ribofuranosyl-1,3,5-triazin-2(1H)-one], the “resensitization to IMiDs (IMiD sensitivity)” value in [7] is listed as “did not restore IMiD sensitivity”. Besides, in assay [8], the “expression of CRBN” value is “remained low and unchanged”.

With `Cc1cc(C)c(CNC(=O)c2cc(-c3ccc(CN4CCOCC4)cc3)cc3c2cnn3C2CCCC2)c(=O)[nH]1` [EPZ005687], in assay [9], the “selectivity for EZH2 compared to EZH1” value is given as 50 fold.

Take `CCN(c1cc(-c2ccc(CN3CCOCC3)cc2)cc(C(=O)NCc2c(C)cc(C)[nH]c2=O)c1C)C1CCOCC1` [EPZ-6438, N-((4,6-dimethyl-2-oxo-1,2-dihydropyridin-3-yl)methyl)-5-(ethyl(tetrahydro-2H-pyran-4-yl)amino)-4-methyl-4'-(morpholinomethyl)-[1,1'-biphenyl]-3-carboxamide]: in assay [7], the “resensitization to IMiDs (IMiD sensitivity)” value is on record as “did not restore IMiD sensitivity”. Moreover, in assay [8], the “expression of CRBN” value was “remained low and unchanged”. Besides, the “resensitization to lenalidomide and pomalidomide (apoptosis)” value in [10] was “minor resensitization effect”. The “sensitization to lenalidomide and pomalidomide” value in assay [11] was “able to render the cells sensitive to both lenalidomide and pomalidomide”; in assay [12], “able to render the cells sensitive to both lenalidomide and pomalidomide”.

Consider `Nc1cccc2c1C(=O)N(C1CCC(=O)NC1=O)C2=O` (centres unmarked) [Pomalidomide], for which the half-inhibitory concentration (IC50) in assay [1] turned out to be 87.3 µM; in [2] it was 15.2 µM; in [3], 0.003 µM; in assay [4], 2.01 µM; in assay [5], 98.3 µM; in assay [6], 60.5 µM.
